Test system: SKOV3 tumor cells
Assay: SKOV3 tumor cell mouse subcutaneous animal model
Assay type: in vivo
Settings: monotherapy, 10 mg/kg, oral, twice a day, four weeks; vs control group
Procedure: (§1) In the efficacy experiment of SKOV3 tumor cell mouse subcutaneous animal model (FIG. 1), the drug was administered on the 30th day after the tumor cells were planted and the drug administration was lasted for four weeks. […] In the efficacy experiment of the PC-9Luc tumor cell mouse intracranial animal model (FIG. 2), the drug was administered on the 10th day after the tumor cells were planted and the drug administration was lasted for three weeks. The second group of compound 1 was used as monotherapy, 10 mg/kg, oral dosing, twice a day; the third group of EGFR inhibitors (chemical name: (R)-6-[(3,3-difluoro-1-methylpiperidin-4-yl)oxy]-nitrogen-(3-ethynyl-2-fluorophenyl)-7-methoxyquinazolin-4-amine) was used as monotherapy, 3 mg/kg, oral dosing, twice a day; the fourth group of compound 1 combined with EGFR inhibitors.

Structure (SMILES) | inhibition of tumor growth
COc1cc(OC2CCN(C)CC2(F)F)c2c(Oc3ccc4[nH]c(C)cc4c3F)ncnc2c1 (racemic) [Compound 1, (R/S)-5-((3,3-difluoro-1-methylpiperidin-4-yl)oxy)-4-((4-fluoro-2-methyl-1H-indole-5-yl)oxy)-7-methoxyquinazoline] | good inhibition of tumor growth

Same assay, conditions: monotherapy, 20 mg/kg, oral, twice a day, four weeks; vs control group

Structure (SMILES) | inhibition of tumor growth
COc1cc(OC2CCN(C)CC2(F)F)c2c(Oc3ccc4[nH]c(C)cc4c3F)ncnc2c1 (racemic) [Compound 1, (R/S)-5-((3,3-difluoro-1-methylpiperidin-4-yl)oxy)-4-((4-fluoro-2-methyl-1H-indole-5-yl)oxy)-7-methoxyquinazoline] | good inhibition of tumor growth

Test system: PC-9Luc tumor cells
Assay: PC-9Luc tumor cell mouse intracranial animal model
Assay type: in vivo
Settings: monotherapy, 3 mg/kg, oral, twice a day, three weeks; vs control group
Procedure: as §1

Structure (SMILES) | inhibition of intracranial tumor growth
C#Cc1cccc(Nc2ncnc3cc(OC)c(O[C@@H]4CCN(C)CC4(F)F)cc23)c1F [EGFR inhibitor, (R)-6-[(3,3-difluoro-1-methylpiperidin-4-yl)oxy]-nitrogen-(3-ethynyl-2-fluorophenyl)-7-methoxyquinazolin-4-amine] | good inhibition on intracranial tumor growth

Molecular target: VEGFR2 (Homo sapiens (Human), UniProt P35968)
Sequence (P35968 20-1356): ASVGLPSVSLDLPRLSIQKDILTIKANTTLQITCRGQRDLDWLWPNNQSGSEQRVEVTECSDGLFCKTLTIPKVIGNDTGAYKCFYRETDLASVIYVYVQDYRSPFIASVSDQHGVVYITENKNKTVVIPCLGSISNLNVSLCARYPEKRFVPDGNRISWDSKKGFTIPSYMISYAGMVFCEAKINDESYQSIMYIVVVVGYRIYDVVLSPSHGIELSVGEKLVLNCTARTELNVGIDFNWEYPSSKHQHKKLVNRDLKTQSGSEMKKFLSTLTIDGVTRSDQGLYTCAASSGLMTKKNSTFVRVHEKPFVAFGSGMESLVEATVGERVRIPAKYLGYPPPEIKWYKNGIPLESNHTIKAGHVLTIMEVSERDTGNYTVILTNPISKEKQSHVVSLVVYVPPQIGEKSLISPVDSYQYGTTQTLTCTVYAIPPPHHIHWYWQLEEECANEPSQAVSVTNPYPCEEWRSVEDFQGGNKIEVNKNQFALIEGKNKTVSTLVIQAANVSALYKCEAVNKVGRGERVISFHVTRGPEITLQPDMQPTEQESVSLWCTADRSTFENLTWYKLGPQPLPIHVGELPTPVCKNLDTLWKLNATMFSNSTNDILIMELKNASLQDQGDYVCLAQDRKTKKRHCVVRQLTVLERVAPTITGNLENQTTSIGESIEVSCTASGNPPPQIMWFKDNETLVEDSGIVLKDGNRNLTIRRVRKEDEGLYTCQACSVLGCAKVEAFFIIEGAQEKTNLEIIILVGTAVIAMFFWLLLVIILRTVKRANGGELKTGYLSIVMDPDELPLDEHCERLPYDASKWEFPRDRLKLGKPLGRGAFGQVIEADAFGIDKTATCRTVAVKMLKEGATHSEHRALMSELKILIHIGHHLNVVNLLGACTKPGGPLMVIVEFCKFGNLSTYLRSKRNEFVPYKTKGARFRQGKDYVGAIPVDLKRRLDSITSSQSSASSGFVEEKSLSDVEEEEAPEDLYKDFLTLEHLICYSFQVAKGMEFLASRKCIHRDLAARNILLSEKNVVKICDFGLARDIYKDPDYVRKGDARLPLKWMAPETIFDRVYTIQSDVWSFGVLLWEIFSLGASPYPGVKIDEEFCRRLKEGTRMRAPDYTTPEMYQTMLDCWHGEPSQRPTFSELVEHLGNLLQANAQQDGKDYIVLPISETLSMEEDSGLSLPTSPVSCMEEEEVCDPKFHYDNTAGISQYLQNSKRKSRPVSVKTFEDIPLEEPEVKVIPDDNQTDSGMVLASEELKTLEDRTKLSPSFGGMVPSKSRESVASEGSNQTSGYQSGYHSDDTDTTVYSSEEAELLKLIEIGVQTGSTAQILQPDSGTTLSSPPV
Assay: Kinase inhibition assay (Caliper, FAM-labeled peptide substrate)
Assay type: biochemical
Settings: not given
Procedure: (§2) 2.5 times of the kinase (VEGFR2 or EGFR or FYN) buffer solution was added to the compound diluted in equal concentration in the 384-well plate and incubated at 22-27° C. for 10 minutes, then 2.5 times of the FAM-labeled peptide substrate and ATP buffer solution were added therein and incubated at 28° C., and then the stop buffer solution was added to stop the reaction. The data was read by Caliper and the following formula was used to calculate the IC50 inhibition: Percent inhibition=(max-conversion)/(max-min)*100. Staurosporine was used as a control. In kinase inhibition assays, some of the compounds of the present invention are effective in inhibiting VEGFR2/FYN/EGFR, so they have the potential for treating or preventing cancer or central nervous system diseases (Table 1).

IC50 [nM] | Structure (SMILES)
< 10 | COc1cc(O[C@@H]2CCN(C)CC2(F)F)c2c(Oc3ccc4[nH]c(C)cc4c3F)ncnc2c1 [Compound 18, (R)-5-((3,3-difluoro-1-methylpiperidin-4-yl)oxy)-4-((4-fluoro-2-methyl-1H-indole-5-yl)oxy)-7-deuterated methoxyquinazoline]
< 10 | COc1cc(O[C@H]2CCN(C)CC2(F)F)c2c(Oc3ccc4[nH]c(C)cc4c3F)ncnc2c1 [Compound 34, (S)-5-((3,3-difluoro-1-methylpiperidin-4-yl)oxy)-4-((4-fluoro-2-methyl-1H-indole-5-yl)oxy)-7-deuterated methoxyquinazoline]
< 10 | COc1cc(O[C@@H]2CCN(C)CC2(F)F)c2c(Oc3ccc4[nH]c(C)cc4c3F)ncnc2c1 [Compound 17, (R)-5-((3,3-difluoro-1-methylpiperidin-4-yl)oxy)-4-((4-fluoro-2-methyl-1H-indole-5-yl)oxy)-7-methoxyquinazoline]
< 10 | COc1cc(OC2CCN(C)CC2(F)F)c2c(Oc3cc(F)c4[nH]c(C)cc4c3F)ncnc2c1 (racemic) [Compound 3, (R/S)-5-((3,3-difluoro-1-methylpiperidin-4-yl)oxy)-4-((4,7-difluoro-2-methyl-1H-indol-5-yl)oxy)-7-methoxyquinazoline]
< 10 | COc1cc(OC2CCN(C)CC2(F)F)c2c(Oc3ccc4[nH]c(C)cc4c3F)ncnc2c1 (racemic) [Compound 2, (R/S)-5-((3,3-difluoro-1-methylpiperidin-4-yl)oxy)-4-((4-fluoro-2-methyl-1H-indole-5-yl)oxy)-7-deuterated methoxyquinazoline]
< 10 | COc1cc(OC2CCN(C)CC2(F)F)c2c(Oc3ccc4[nH]c(C)cc4c3F)ncnc2c1 (racemic) [Compound 1, (R/S)-5-((3,3-difluoro-1-methylpiperidin-4-yl)oxy)-4-((4-fluoro-2-methyl-1H-indole-5-yl)oxy)-7-methoxyquinazoline]
< 10 | COc1cc(O[C@H]2CCN(C)CC2(F)F)c2c(Oc3ccc4[nH]c(C)cc4c3F)ncnc2c1 [Compound 33, (S)-5-((3,3-difluoro-1-methylpiperidin-4-yl)oxy)-4-((4-fluoro-2-methyl-1H-indole-5-yl)oxy)-7-methoxyquinazoline]
< 10 | COc1cc(O[C@H]2CCN(C)CC2(F)F)c2c(Oc3cc(F)c4[nH]c(C)cc4c3F)ncnc2c1 [Compound 35, (S)-5-((3,3-difluoro-1-methylpiperidin-4-yl)oxy)-4-((4,7-difluoro-2-methyl-1H-indol-5-yl)oxy)-7-methoxyquinazoline]
< 10 | COc1cc(O[C@@H]2CCN(C)CC2(F)F)c2c(Oc3cc(F)c4[nH]c(C)cc4c3F)ncnc2c1 [Compound 19, (R)-5-((3,3-difluoro-1-methylpiperidin-4-yl)oxy)-4-((4,7-difluoro-2-methyl-1H-indol-5-yl)oxy)-7-methoxyquinazoline]

Molecular target: EGFR (Homo sapiens (Human), UniProt P00533)
Sequence (P00533 25-1210, species assumed): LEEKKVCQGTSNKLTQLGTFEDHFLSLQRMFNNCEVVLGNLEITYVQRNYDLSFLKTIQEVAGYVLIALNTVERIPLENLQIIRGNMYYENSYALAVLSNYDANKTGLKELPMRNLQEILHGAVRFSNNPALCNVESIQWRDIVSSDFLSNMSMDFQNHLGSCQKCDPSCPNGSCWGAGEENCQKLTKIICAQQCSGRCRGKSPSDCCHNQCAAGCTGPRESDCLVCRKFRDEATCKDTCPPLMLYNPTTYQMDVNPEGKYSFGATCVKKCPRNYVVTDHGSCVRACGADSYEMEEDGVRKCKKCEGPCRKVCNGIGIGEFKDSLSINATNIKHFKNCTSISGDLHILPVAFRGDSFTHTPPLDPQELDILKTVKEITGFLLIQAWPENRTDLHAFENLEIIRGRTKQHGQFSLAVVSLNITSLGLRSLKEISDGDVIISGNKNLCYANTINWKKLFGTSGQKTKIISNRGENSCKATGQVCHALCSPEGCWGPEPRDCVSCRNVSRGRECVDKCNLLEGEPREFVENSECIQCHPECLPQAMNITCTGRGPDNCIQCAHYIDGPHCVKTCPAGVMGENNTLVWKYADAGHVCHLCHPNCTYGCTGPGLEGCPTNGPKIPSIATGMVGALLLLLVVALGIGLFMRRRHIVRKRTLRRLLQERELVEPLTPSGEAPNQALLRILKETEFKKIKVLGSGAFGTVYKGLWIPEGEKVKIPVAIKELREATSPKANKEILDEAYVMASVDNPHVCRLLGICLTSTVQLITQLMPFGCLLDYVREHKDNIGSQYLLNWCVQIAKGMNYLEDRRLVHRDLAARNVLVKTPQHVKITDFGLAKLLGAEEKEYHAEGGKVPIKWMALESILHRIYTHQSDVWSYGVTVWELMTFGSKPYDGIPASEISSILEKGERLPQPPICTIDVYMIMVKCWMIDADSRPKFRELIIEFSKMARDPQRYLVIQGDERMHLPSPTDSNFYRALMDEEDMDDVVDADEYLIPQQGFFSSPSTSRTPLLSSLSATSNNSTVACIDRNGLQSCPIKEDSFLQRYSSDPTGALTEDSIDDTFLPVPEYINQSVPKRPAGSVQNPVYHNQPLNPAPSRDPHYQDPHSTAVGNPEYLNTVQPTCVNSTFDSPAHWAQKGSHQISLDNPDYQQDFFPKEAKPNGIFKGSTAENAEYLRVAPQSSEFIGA
Assay: as above
Assay type: biochemical
Settings: not given
Procedure: as §2

Structure (SMILES) | IC50 [nM]
C#Cc1cccc(Nc2ncnc3cc(OC)cc(O[C@H]4CCN(C)CC4(F)F)c23)c1F (single isomer, unassigned) [Compound 43] | < 10
C#Cc1cccc(Nc2ncnc3cc(OC)cc(O[C@@H]4CCN(C)CC4(F)F)c23)c1F [Compound 27, (R)-5-((3,3-difluoro-1-methylpiperidin-4-yl)oxy)-N-(3-ethynyl-2-fluorophenyl)-7-methoxyquinazolin-4-amine] | < 10
C#Cc1cccc(Nc2ncnc3cc(OC)cc(OC4CCN(C)CC4(F)F)c23)c1F (racemic) [Compound 11, (R/S)-5-((3,3-difluoro-1-methylpiperidin-4-yl)oxy)-N-(3-ethynyl-2-fluorophenyl)-7-methoxyquinazolin-4-amine] | < 10

Second part, the compound after the results:

IC50 [nM] | Structure (SMILES)
< 10 | C#Cc1c(F)ccc(Nc2ncnc3cc(OC)cc(O[C@H]4CCN(C)CC4(F)F)c23)c1F [Compound 48, (S)-5-((3,3-difluoro-1-methylpiperidin-4-yl)oxy)-N-(3-ethynyl-2,4-difluorophenyl)-7-methoxyquinazolin-4-amine]
< 10 | C#Cc1c(F)ccc(Nc2ncnc3cc(OC)cc(O[C@@H]4CCN(C)CC4(F)F)c23)c1F [Compound 32, (R)-5-((3,3-difluoro-1-methylpiperidin-4-yl)oxy)-N-(3-ethynyl-2,4-difluorophenyl)-7-methoxyquinazolin-4-amine]
< 10 | C#Cc1c(F)ccc(Nc2ncnc3cc(OC)cc(OC4CCN(C)CC4(F)F)c23)c1F (racemic) [Compound 16, (R/S)-5-((3,3-difluoro-1-methylpiperidin-4-yl)oxy)-N-(3-ethynyl-2,4-difluorophenyl)-7-methoxyquinazolin-4-amine]

Molecular target: FYN (Homo sapiens (Human), UniProt P06241)
Sequence (P06241 whole entry): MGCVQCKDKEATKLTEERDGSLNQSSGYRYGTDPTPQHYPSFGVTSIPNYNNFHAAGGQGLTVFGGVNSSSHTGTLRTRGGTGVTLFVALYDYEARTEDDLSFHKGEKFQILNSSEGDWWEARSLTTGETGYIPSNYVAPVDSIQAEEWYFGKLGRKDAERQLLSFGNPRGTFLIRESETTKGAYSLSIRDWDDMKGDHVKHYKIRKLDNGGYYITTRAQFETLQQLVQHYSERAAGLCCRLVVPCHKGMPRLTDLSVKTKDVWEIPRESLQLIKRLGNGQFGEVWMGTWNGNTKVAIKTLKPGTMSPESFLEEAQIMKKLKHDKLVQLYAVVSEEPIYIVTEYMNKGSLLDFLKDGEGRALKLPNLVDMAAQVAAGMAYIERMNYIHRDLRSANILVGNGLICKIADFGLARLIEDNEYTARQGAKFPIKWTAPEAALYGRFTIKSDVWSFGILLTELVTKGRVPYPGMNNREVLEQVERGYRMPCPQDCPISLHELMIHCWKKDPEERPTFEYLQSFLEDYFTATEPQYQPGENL
Assay: as above
Assay type: biochemical
Settings: not given
Procedure: as §2

IC50 [nM] | Structure (SMILES)
< 100 | COc1cc(OC2CCN(C)CC2(F)F)c2c(Nc3c(Cl)ccc4c3OCO4)ncnc2c1 (racemic) [Compound 4, (R/S)—N-(5-chlorobenzo[d][1,3]dioxolcyclopenten-4-yl)-5-((3,3-difluoro-1-methylpiperidin-4-yl)oxy)-7-methoxyquinazolin-4-amine]
< 100 | COc1cc(O[C@H]2CCN(C)CC2(F)F)c2c(Nc3c(Cl)ccc4c3OCO4)ncnc2c1 [Compound 44, (S)—N-(5-chlorobenzo[d] [1,3]dioxolcyclopenten-4-yl)-5-((3,3-difluoro-1-methylpiperidin-4-yl)oxy)-7-deuterated methoxyquinazolin-4-amine]
< 100 | COc1cc(O[C@@H]2CCN(C)CC2(F)F)c2c(Nc3c(F)ccc4c3OCO4)ncnc2c1 [Compound 23, (R)—N-(5-fluorobenzo[d][1,3]dioxolcyclopenten-4-yl)-5-((3,3-difluoro-1-methylpiperidin-4-yl)oxy)-7-deuterated methoxyquinazolin-4-amine]
< 100 | CCOc1cc(OC2CCN(C)CC2(F)F)c2c(Nc3c(F)ccc4c3OCO4)ncnc2c1 (racemic) [Compound 6, (R/S)—N-(5-fluorobenzo[d][1,3]dioxolcyclopenten-4-yl)-5-((3,3-difluoro-1-methylpiperidin-4-yl)oxy)-7-ethoxyquinazolin-4-amine]

From US11713306B2, “5-substituted difluoropiperidine compounds with blood-brain barrier penetrable capability” (Wayshine Biopharm Holding Limited, priority 2018, dated 2023)
